In EP4583874B1, “MULTITARGET NUCLEAR RECEPTOR LIGANDS BASED ON 2-(4-(QUINOLIN-2-YLOXY)PHENOXY)PROPANOIC ACID AND 2-(4-(QUINOXALIN-2-YLOXY)PHENOXY)PROPANOIC ACID FOR THE TREATMENT OF METABOLIC AND LIVER DISEASES” (CHARLES UNIVERSITY, FACULTY OF PHARMACY IN HRADEC KRALOVE, priority 2022, dated 2024):
Read-outs that look alike come from different tables or passages of the source.

Key:
Type in all cases: cell-based
[1] = molecular target: T1, human PPARα (Homo sapiens, UniProt Q07869); assay: PPARα responsive luciferase reporter gene assay (pGAL4-PPARα / pGL5-UAS 9x) in HepG2 cells; conditions: relative activation to fenofibrate 10 µM (100%), HepG2, 24 h, negative value indicates inverse agonism
T1 construct: DNA constructs encoding human LBD domains of human PPARα, PPARγ, of LXRα (pGAL4-PPARα, pGAL4-PPARγ, pGAL4-LXRα); expressed in transfected cells; host or cells: HepG2
T1 sequence (Q07869 239-466 limits assumed): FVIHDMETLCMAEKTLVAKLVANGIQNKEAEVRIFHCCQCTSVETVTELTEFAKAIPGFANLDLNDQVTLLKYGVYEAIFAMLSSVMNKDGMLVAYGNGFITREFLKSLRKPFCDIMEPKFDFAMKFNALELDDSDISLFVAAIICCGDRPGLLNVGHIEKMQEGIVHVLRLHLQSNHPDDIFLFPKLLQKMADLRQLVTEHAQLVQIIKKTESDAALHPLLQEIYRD
Description: Bezafibrate, GW7647 and WY14643 are known PPARα ligands. […] GW3965 is known high-affinity LXRα ligand. […]
(§1) In HepG2 cells, luciferase gene reporter assays have been performed with the transiently transfected reporter gene luciferase construct with the UAS yeast binding site interacting with GAL4 protein (pGL5-UAS 9x, Promega). DNA constructs encoding human LBD domains of human PPARα, PPARγ, of LXRα (pGAL4-PPARα, pGAL4-PPARγ, pGAL4-LXRα) have been cotransfected with the reporter construct. For FXR, FXRE-luc construct with FXR response elements upstream of Firefly luciferase has been used together with an expression construct for human FXR for HepG2 cells transfection. HepG2 cells were then treated with compounds of the invention for 24 h.

[2] = molecular target: T2, human PPARγ (Homo sapiens, UniProt P37231); assay: PPARγ luciferase reporter gene assay (pGAL4-PPARγ / pGL5-UAS 9x) in HepG2 cells; conditions: HepG2, 24 h
T2 construct: DNA constructs encoding human LBD domains of human PPARα, PPARγ, of LXRα (pGAL4-PPARα, pGAL4-PPARγ, pGAL4-LXRα); expressed in transfected cells; host or cells: HepG2
T2 sequence (P37231 238-503 limits assumed): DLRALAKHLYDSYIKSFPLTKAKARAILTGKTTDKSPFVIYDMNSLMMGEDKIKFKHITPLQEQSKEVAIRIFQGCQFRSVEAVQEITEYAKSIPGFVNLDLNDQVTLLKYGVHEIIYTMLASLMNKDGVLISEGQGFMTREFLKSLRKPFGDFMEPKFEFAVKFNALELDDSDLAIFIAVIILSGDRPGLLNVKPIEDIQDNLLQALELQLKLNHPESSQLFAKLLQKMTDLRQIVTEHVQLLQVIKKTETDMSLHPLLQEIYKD

[3] = molecular target: T3, human FXR (Homo sapiens, UniProt Q96RI1); assay: FXR responsive luciferase reporter gene assay (FXRE-luc + human FXR expression construct) in HepG2 cells; conditions: HepG2, 24 h
T3 construct: expressed in transfected cells; host or cells: HepG2
T3 sequence (Q96RI1 1-486): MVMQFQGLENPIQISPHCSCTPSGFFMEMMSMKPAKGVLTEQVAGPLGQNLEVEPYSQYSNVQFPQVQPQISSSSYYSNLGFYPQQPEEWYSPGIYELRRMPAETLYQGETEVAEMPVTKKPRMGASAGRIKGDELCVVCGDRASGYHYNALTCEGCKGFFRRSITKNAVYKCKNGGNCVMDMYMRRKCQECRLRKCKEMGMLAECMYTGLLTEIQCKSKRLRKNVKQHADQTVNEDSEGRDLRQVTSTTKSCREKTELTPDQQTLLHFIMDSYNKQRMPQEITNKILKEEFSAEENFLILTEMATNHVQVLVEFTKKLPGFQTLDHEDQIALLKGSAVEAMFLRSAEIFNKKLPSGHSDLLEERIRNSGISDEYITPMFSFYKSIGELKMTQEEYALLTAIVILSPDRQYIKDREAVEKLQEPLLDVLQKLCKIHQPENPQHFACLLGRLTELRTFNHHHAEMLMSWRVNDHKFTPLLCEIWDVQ
Description: as §1

[4] = molecular target: T4, human LXRα (Homo sapiens, UniProt Q13133); assay: LXRα luciferase reporter gene assay, inhibition of activation by GW3965 (pGAL4-LXRα / pGL5-UAS 9x) in HepG2 cells
T4 construct: DNA constructs encoding human LBD domains of human PPARα, PPARγ, of LXRα (pGAL4-PPARα, pGAL4-PPARγ, pGAL4-LXRα); expressed in transfected cells; host or cells: HepG2
T4 sequence (Q13133 209-447 limits assumed): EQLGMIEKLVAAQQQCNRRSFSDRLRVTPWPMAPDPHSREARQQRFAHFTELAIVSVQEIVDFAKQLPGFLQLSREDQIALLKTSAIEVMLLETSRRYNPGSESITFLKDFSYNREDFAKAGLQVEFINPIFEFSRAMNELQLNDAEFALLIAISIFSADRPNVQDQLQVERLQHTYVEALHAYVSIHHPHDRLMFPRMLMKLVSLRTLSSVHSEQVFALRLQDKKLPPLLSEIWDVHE
Description: Bezafibrate, GW7647 and WY14643 are known PPARα ligands. […] GW3965 is known high-affinity LXRα ligand.
Inverse agonistic/antagonistic activities of tested compounds to LXRα receptor activated by the LXRα agonist GW3965(10 µM). […] Negative value indicates inverse agonism.
as §1

[5] = molecular target: T5, TGR5 (Homo sapiens, UniProt Q8TDU6); assay: TGR5 luciferase reporter assay; conditions: relative activation to LCA 10 µM (100%), negative value indicates inverse agonism
T5 sequence (Q8TDU6 1-330): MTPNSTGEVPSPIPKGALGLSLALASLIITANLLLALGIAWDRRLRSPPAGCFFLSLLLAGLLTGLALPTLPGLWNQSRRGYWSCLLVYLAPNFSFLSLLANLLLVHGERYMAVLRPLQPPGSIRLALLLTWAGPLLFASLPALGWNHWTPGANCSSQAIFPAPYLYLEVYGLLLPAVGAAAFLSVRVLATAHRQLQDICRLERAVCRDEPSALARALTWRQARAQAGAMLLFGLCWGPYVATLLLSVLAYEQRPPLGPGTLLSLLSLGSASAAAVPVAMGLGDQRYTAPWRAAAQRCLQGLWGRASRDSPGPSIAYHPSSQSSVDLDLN

[6] = HepG2, 24 h; read-out: LXRα antagonism

Compound | Emax at 10 µM [1] | Emax at 10 µM [2] | Emax at 10 µM [3] | inhibition at 10 µM [4, 6] | inhibition at 10 µM ([4]; HepG2, 24 h, read-out: LXRα antagonism) | Emax at 10 µM [5]
C[C@@H](Oc1ccc(Oc2ccc3cc(Cl)ccc3n2)cc1)C(=O)O [compound 36, (R)-2-(4-((6-Chloroquinolin-2-yl)oxy)phenoxy)propanoic acid] | -5% | 23% | 19% | 36% |  | 
C[C@@H](Oc1ccc(Oc2ccc3c(C(F)(F)F)cccc3n2)cc1)C(=O)O [compound 43, (R)-2-(4-((5-(Trifluoromethyl)quinolin-2-yl)oxy)phenoxy)propanoic acid] | -5% | -1% | 1% | 48% |  | 
C[C@@H](Oc1ccc(Oc2cnc3cc(Cl)ccc3n2)cc1)C(=O)O [compound 64, (R)-2-(4-((6-Chloroquinoxalin-2-yl)oxy)phenoxy)propanoic acid] |  |  | 1% |  | 17% | 
C[C@@H](Oc1ccc(Oc2ccc3ccc(Br)cc3n2)cc1)C(=O)O [compound 39, (R)-2-(4-((7-Bromoquinolin-2-yl)oxy)phenoxy)propanoic acid] | 87% | 3% | 4% | 43% |  | 6%
CCOC(=O)[C@@H](C)Oc1ccc(Oc2ccc3c(Cl)cccc3n2)cc1 [compound 76, Ethyl (R)-2-(4-((5-chloroquinolin-2-yl)oxy)phenoxy)propanoate] |  |  | 25% | 51% |  | 
C[C@@H](Oc1ccc(Oc2cnc3ccc(Br)cc3n2)cc1)C(=O)O [compound 65, (R)-2-(4-((7-Bromoquinoxalin-2-yl)oxy)phenoxy)propanoic acid] | 69% | 2% | -2% |  |  | -3%
CC(C)(Oc1ccc(Oc2ccc3ccc(Cl)cc3n2)cc1)C(=O)O [compound 55, 2-(4-((7-Chloroquinolin-2-yl)oxy)phenoxy)-2-methylpropanoic acid] | 1% | -2% | 0% |  |  | -15%
C[C@@H](Oc1ccc(Oc2cnc3ccccc3n2)cc1)C(=O)O [compound 62] | 0% | 2% | 7% |  |  | 43%
CC(=O)Nc1ccc2ncc(Oc3ccc(O[C@H](C)C(=O)O)cc3)nc2c1 [compound 69, (R)-2-(4-((7-Acetamidoquinoxalin-2-yl)oxy)phenoxy)propanoic acid] | 46% | 1% | 3% |  |  | 
CCc1ccc2ccc(Oc3ccc(O[C@H](C)C(=O)O)cc3)nc2c1 [compound 44, (R)-2-(4-((7-Ethylquinolin-2-yl)oxy)phenoxy)propanoic acid] | 0% | 4% | 15% | 7% |  | 
CC(Oc1ccc(NCc2ccc3c(Cl)cc(Cl)cc3n2)cc1)C(=O)O (stereo not shown) [compound 84, 2-(4-(((5,7-Dichloroquinolin-2-yl)methyl)amino)phenoxy)propanoic acid] | 0% | 1% | -2% | 5% |  | 
C[C@@H](Oc1ccc(Oc2ccc3ccc([N+](=O)[O-])cc3n2)cc1)C(=O)O [compound 50, (R)-2-(4-((7-nitroquinolin-2-yl)oxy)phenoxy)propanoic acid] | 87% |  | 0% |  |  | 
CCOC(=O)C(C)Oc1ccc(NCc2ccc3c(Cl)cccc3n2)cc1 (stereo not shown) [compound 85, Ethyl 2-(4-(((5-chloroquinolin-2-yl)methyl)amino)phenoxy)propanoate] | 1% | -6% | -1% |  |  | 30%
C[C@@H](Oc1ccc(Oc2ccc3c(Cl)cc(Cl)cc3n2)cc1)C(=O)O [compound 38, (R)-2-(4-((5,7-Dichloroquinolin-2-yl)oxy)phenoxy)propanoic acid] | 0% | 1% | 14% | 41% |  | 2%
Cc1cc(C)c2ccc(Oc3ccc(O[C@H](C)C(=O)O)cc3)nc2c1 [compound 45, (R)-2-(4-((5,7-Dimethylquinolin-2-yl)oxy)phenoxy)propanoic acid] | 0% | 17% | 7% | 43% |  | 
C[C@@H](Oc1ccc(Oc2cnc3ccc(I)cc3n2)cc1)C(=O)O [compound 68, (R)-2-(4-((7-Iodoquinoxalin-2-yl)oxy)phenoxy)propanoic acid] | 49% | 9% | -3% |  |  | 11%
CC(=O)Nc1ccc2ncc(Oc3ccc(OCC(=O)O)cc3)nc2c1 [compound 73, 2-(4-((7-Acetamidoquinoxalin-2-yl)oxy)phenoxy)acetic acid] | 59% | 1% | 6% |  |  | 20%
CC(Oc1ccc(Nc2cnc3ccc(Cl)cc3n2)cc1)C(=O)O (stereo not shown) [compound 80, 2-(4-((7-chloroquinoxalin-2-yl)amino)phenoxy)propanoic acid] | 0% |  | -1% | 66% |  | 
C[C@@H](Oc1ccc(Oc2cnc3ccc(Cl)cc3n2)cc1)C(=O)O [compound 63, (R)-2-(4-((7-Chloroquinoxalin-2-yl)oxy)phenoxy)propanoic acid] | 0% | 2% | -3% |  |  | 4%
C[C@@H](Oc1ccc(Oc2ccc3ccc(F)cc3n2)cc1)C(=O)O [compound 41, (R)-2-(4-((7-Fluoroquinolin-2-yl)oxy)phenoxy)propanoic acid] | 1% | 7% | 1% |  |  | 
COc1ccc2ncc(Oc3ccc(O[C@H](C)C(=O)O)cc3)nc2c1 [compound 70, (R)-2-(4-((7-Methoxyquinoxalin-2-yl)oxy)phenoxy)propanoic acid] | 10% | 0% | -2% |  |  | 
Cc1ccc2ncc(Oc3ccc(O[C@H](C)C(=O)O)cc3)nc2c1 [compound 66, (R)-2-(4-((7-Methylquinoxalin-2-yl)oxy)phenoxy)propanoic acid] | 1% | 2% | -3% |  |  | 
